Results reported in PMC9653166 (Journal of medicinal chemistry, 2022).
“And” between values parts separate entries of the source, which are not always exact repeats. Equal entries are not always repeated. “Also recorded” adds a separate entry of the source.

How the values were obtained:
Sirt5 [1] = target: T1, Sirt5 (Homo sapiens, UniProt Q9NXA8); assay: Coupled enzymatic desuccinylation assay, Sirt5 with CPS1-succK537 peptide; type: biochemical; conditions: for Effect on Sirt5 activity (in words): coupled assay, 10 and 100 μM compound
T1 sequence (Q9NXA8 34-302): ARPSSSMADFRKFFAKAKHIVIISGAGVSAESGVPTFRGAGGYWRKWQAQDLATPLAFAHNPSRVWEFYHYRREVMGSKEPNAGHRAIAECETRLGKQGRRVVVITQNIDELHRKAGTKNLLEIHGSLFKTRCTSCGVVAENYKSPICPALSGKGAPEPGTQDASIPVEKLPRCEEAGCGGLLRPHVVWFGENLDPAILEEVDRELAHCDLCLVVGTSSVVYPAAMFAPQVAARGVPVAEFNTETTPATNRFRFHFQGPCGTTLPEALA

Sirt2 = target: T2, Sirt2 (Homo sapiens, UniProt Q8IXJ6); assay: Coupled enzymatic deacetylation assay, Sirt2 with α-tubulin-acK25 peptide; type: biochemical; conditions: for Sirt2 activation (α-tubulin-acK25 deacetylation): 100 μM compound; for Effect on Sirt2 activity (in words): coupled assay, 10 and 100 μM compound
T2 sequence (Q8IXJ6 43-356): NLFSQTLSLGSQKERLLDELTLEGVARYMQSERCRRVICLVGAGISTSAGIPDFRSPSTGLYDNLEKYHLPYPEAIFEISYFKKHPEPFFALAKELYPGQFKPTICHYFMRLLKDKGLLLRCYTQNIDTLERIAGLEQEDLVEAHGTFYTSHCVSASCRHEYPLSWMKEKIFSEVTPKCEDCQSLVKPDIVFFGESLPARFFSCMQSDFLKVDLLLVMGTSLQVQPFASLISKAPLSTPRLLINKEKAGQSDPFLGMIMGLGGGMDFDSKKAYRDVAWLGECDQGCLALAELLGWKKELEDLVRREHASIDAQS

Sirt3 [2] = target: T3, Sirt3 (Homo sapiens, UniProt Q9NTG7); assay: Coupled enzymatic deacetylation assay, Sirt3 with ACS2-acK642 peptide; type: biochemical; conditions: for Effect on Sirt3 activity (in words): coupled assay, ACS2 peptide, 10 and 100 μM compound
T3 sequence (Q9NTG7 114-380): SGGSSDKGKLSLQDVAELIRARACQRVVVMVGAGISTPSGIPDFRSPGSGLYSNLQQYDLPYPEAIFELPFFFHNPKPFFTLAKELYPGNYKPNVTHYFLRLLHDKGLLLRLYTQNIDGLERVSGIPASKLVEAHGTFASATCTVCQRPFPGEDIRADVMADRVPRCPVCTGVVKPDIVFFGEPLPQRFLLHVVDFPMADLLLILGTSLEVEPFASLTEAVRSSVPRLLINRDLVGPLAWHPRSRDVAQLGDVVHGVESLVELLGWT

[3] = tested on: mouse embryonic fibroblasts (MEFs); assay: Mitochondrial mass by FACS; type: cell-based; conditions: 25 μM, 24 h
MnSOD-Lys68 acetylation = MnSOD-Lys68 acetylation Western blot in MDA-MB-231 cells; type: cell-based, human
GDH acetylation = assay: GDH immunoprecipitation and Lys acetylation Western blot, MDA-MB-231 cells; type: cell-based, human; conditions: 50 μM
Sirt3 [4] = target: T4, Sirt3 (Homo sapiens, UniProt Q9NTG7); assay: Cellular SIRT3 deacetylase activity assay; type: cell-based; conditions: MDA-MB-231 cells, 50 and 100 μM, 3 h
T4 sequence (Q9NTG7 1-399): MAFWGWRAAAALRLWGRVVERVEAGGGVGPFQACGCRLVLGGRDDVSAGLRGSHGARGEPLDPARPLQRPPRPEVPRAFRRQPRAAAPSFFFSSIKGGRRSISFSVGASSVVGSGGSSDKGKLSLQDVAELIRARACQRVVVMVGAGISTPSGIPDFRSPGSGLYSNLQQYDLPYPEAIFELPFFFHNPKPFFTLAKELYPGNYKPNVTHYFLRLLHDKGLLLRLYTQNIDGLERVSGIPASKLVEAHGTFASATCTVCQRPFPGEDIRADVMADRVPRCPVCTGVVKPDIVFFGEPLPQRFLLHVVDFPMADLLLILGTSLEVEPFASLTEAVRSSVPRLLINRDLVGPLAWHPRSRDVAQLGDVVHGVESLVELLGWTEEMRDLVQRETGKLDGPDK

Sirt5 [5] = target: T5, Sirt5 (Homo sapiens, UniProt Q9NXA8); assay: PDC deacylation assay: PDHA1 desuccinylation by recombinant Sirt5; type: biochemical; conditions: 100 μM compound, PDHA1 from porcine heart tissue
T5 sequence (Q9NXA8 37-310): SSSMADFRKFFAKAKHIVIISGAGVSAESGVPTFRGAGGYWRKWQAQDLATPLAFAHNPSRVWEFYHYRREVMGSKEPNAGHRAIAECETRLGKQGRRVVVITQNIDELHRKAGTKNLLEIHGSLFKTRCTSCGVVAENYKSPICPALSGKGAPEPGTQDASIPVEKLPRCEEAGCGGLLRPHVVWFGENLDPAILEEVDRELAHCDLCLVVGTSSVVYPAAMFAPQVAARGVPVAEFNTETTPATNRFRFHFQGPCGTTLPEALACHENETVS

GDH = GDH activity assay in MDA-MB-231 cell lysates; type: cell-based, human; conditions: wild-type MDA-MB-231 cells, 50 μM, 4 or 24 h
MDA-MB-231 cells = assay: Ammonia level assay, MDA-MB-231 cells; type: cell-based, human; conditions: 50 μM, 4 and 24 h
glutaminase (GLS) = assay: GLS activity assay in MDA-MB-231 cell lysates; type: cell-based, human; conditions: MDA-MB-231 cells, 50 μM, 4 and 24 h

## CCOC(=O)C1=CN(Cc2ccccc2)C=C(C(=O)OCC)C1c1ccc(-c2ccccc2)cc1 [Compound 2]
Sirt5 [1]
  Effect on Sirt5 activity (in words): Sirt5 activation

## CCOC(=O)C1=CN(Cc2ccccc2)C=C(C(=O)OCC)C1c1cccc2ccccc12 [Compound 3]
Sirt5 [1]
  Effect on Sirt5 activity (in words): Sirt5 activation

## CCOC(=O)C1=CN(Cc2ccccc2)C=C(C(=O)OCC)C1c1ccc2ccccc2c1 [Compound 4]
Sirt5 [1]; 10 μM compound
  Sirt5 activation (CPS1-succK537 desuccinylation): 1.2- to 1.5 fold
Sirt5 [1]
  Effect on Sirt5 activity (in words): Sirt5 activation

## CCOC(=O)C1=CN(Cc2ccccc2)C=C(C(=O)OCC)C1c1ccco1 [Compound 5]
Sirt2
  Sirt2 activation (α-tubulin-acK25 deacetylation): less than 1.5 fold
  Effect on Sirt2 activity (in words): weak Sirt2 activation

## CCOC(=O)C1=CN(Cc2ccccc2)C=C(C(=O)OCC)C1c1nccs1 [Compound 7]
Sirt3 [2]
  Effect on Sirt3 activity (in words): Sirt3 activation; also recorded: comparable to the parent compound

## CCOC(=O)C1=CN(Cc2ccccc2)C=C(C(=O)OCC)C1c1cc2ccccc2s1 [Compound 9]
Sirt5 [1]; 100 μM compound
  Sirt5 activation (CPS1-succK537 desuccinylation): 2- to 3 fold
Sirt5 [1]
  Effect on Sirt5 activity (in words): Sirt5 activation

## CCOC(=O)C1=CN(Cc2ccccc2)C=C(C(=O)OCC)C1c1cnc2ccccc2c1 [Compound 10]
Sirt3 [2]
  Effect on Sirt3 activity (in words): Sirt3 activation; also recorded: comparable to the parent compound
[3]; Sirt3 knock-out MEFs
  Effect on mitochondrial mass: no significant compound effect
[3]; wild-type MEFs
  Increase of mitochondrial mass: about 2.5 fold

## CCOC(=O)C1=CN(C(=O)c2ccccc2)C=C(C(=O)OCC)C1c1ccccc1 [Compound 11]
MnSOD-Lys68 acetylation; MDA-MB-231 cells, 50 μM
  MnSOD-Lys68 acetylation: decrease in MnSOD-Lys68 acetylation
MnSOD-Lys68 acetylation; Sirt3 silenced MDA-MB-231 cells, 16 h
  MnSOD-Lys68 acetylation: did not decrease MnSOD-Lys68 acetylation
GDH acetylation
  GDH overall Lys acetylation: decreased acetylation levels
Sirt3 [2]
  EC50: 100 to 200 µM
Sirt3 [2]; 100 μM compound
  Sirt3 activity: over 300%
Sirt3 [4]
  FdL deacetylation (Sirt3) activity in cell lysates: significant increase in FdL deacetylation activity

## CCOC(=O)C1=CN(C(=O)c2ccccc2)C=C(C(=O)OCC)C1c1cccc(Cl)c1 [Compound 13]
Sirt5 [1]; 10 μM compound
  Sirt5 activation (CPS1-succK537 desuccinylation): 1.2- to 1.5 fold
Sirt5 [5]
  Sirt5-dependent desuccinylation of PDHA1: clearly enhanced

## CCOC(=O)C1=CN(C(=O)c2ccccc2)C=C(C(=O)OCC)C1c1ccc(Cl)cc1 [Compound 14]
Sirt5 [1]; 10 μM compound
  Sirt5 activation (CPS1-succK537 desuccinylation): 1.2- to 1.5 fold

## CCOC(=O)C1=CN(C(=O)c2ccccc2)C=C(C(=O)OCC)C1c1cccc(C)c1 [Compound 16]
GDH
  GDH activity in cell lysates: no significant changes in GDH activity
MDA-MB-231 cells
  Ammonia accumulation: no such effects
Glutaminase (GLS)
  GLS activity in cell lysates: no such effects

## CCOC(=O)C1=CN(C(=O)c2ccccc2)C=C(C(=O)OCC)C1c1ccc(C)cc1 [Compound 17]
Sirt5 [1]
  Effect on Sirt5 activity (in words): specific Sirt5 activation

## CCOC(=O)C1=CN(C(=O)c2ccccc2)C=C(C(=O)OCC)C1c1ccccc1OC [Compound 18]
Sirt5 [1]
  Effect on Sirt5 activity (in words): specific Sirt5 activation

## CCOC(=O)C1=CN(C(=O)c2ccccc2)C=C(C(=O)OCC)C1c1ccc(OC)cc1 [Compound 20]
Sirt5 [1]; 10 μM compound
  Sirt5 activation (CPS1-succK537 desuccinylation): 1.2- to 1.5 fold

## CCOC(=O)C1=CN(C(=O)c2cccc3ccccc23)C=C(C(=O)OCC)C1c1ccccc1 [Compound 21]
Sirt5 [1]; 100 μM compound
  Sirt5 activation (CPS1-succK537 desuccinylation): 2- to 3 fold
Sirt5 [1]
  Effect on Sirt5 activity (in words): specific Sirt5 activation

## CCOC(=O)C1=CN(C(=O)c2ccc3ccccc3c2)C=C(C(=O)OCC)C1c1ccccc1 [Compound 22]
Sirt3 [2]
  Effect on Sirt3 activity (in words): comparable to the parent compound
Sirt2
  Sirt2 activation (α-tubulin-acK25 deacetylation): less than 1.5 fold

## CCOC(=O)C1=CN(C(=O)c2cnccn2)C=C(C(=O)OCC)C1c1ccccc1 [Compound 23]
Sirt5 [1]; 10 μM compound
  Sirt5 activation (CPS1-succK537 desuccinylation): 1.2- to 1.5 fold
Sirt5 [1]; 100 μM compound
  Sirt5 activation (CPS1-succK537 desuccinylation): 2- to 3 fold
Sirt5 [1]
  Effect on Sirt5 activity (in words): specific Sirt5 activation

## CCOC(=O)C1=CN(C(=O)c2cnc3ccccc3n2)C=C(C(=O)OCC)C1c1ccccc1 [Compound 24]
Sirt5 [1]; 10 μM compound
  Sirt5 activation (CPS1-succK537 desuccinylation): 1.2- to 1.5 fold
Sirt5 [1]; 100 μM compound
  Sirt5 activation (CPS1-succK537 desuccinylation): 2- to 3 fold and 2.5 fold
Sirt3 [2]
  Effect on Sirt3 activity (in words): comparable to the parent compound

## CCOC(=O)C1=CN(Cc2cc(OC)c(OC)c(OC)c2)C=C(C(=O)OCC)C1c1ccccc1 [Compound 25, Diethyl 4-Phenyl-1-(3,4,5-trimethoxybenzyl)-1,4-dihydropyridine-3,5-dicarboxylate]
Sirt3 [2]
  Effect on Sirt3 activity (in words): lost their effects towards Sirt3

## CCOC(=O)C1=CN(Cc2cc(OC)c(OC)c(OC)c2)C=C(C(=O)OCC)C1c1cnc2ccccc2c1 [Compound 26, Diethyl 4-(Quinolin-3-yl)-1-(3,4,5-trimethoxybenzyl)-1,4-dihydropyridine-3,5-dicarboxylate]
Sirt3 [2]
  Effect on Sirt3 activity (in words): lost their effects towards Sirt3

## CCOC(=O)C1=CN(C(=O)c2ccccc2)C=C(C(=O)OCC)C1c1ccco1 [Compound 27, Diethyl 1-Benzoyl-4-(furan-2-yl)-1,4-dihydropyridine-3,5-dicarboxylate]
Sirt5 [1]; 100 μM compound
  Sirt5 activation (CPS1-succK537 desuccinylation): about 2 fold

## CCOC(=O)C1=CN(C(=O)c2ccccc2)C=C(C(=O)OCC)C1c1ccoc1 [Compound 28, Diethyl 1-Benzoyl-4-(furan-3-yl)-1,4-dihydropyridine-3,5-dicarboxylate]
Sirt5 [1]; 100 μM compound
  Sirt5 activation (CPS1-succK537 desuccinylation): 3- to 3.5 fold

## CCOC(=O)C1=CN(C(=O)c2cc(OC)c(OC)c(OC)c2)C=C(C(=O)OCC)C1c1cccc(N)c1 [Compound 38, Diethyl 4-(3-Aminophenyl)-1-(3,4,5-trimethoxybenzoyl)-1,4-dihydropyridine-3,5-dicarboxylate]
Sirt5 [1]; 100 μM compound
  Sirt5 activation (CPS1-succK537 desuccinylation): 3- to 3.5 fold and 3.5 fold
Sirt2
  Sirt2 activation (α-tubulin-acK25 deacetylation): 2 fold

## CCOC(=O)C1=CN(C(=O)c2cc(OC)c(OC)c(OC)c2)C=C(C(=O)OCC)C1c1ccco1 [Compound 40, Diethyl 4-(Furan-2-yl)-1-(3,4,5-trimethoxybenzoyl)-1,4-dihydropyridine-3,5-dicarboxylate]
Sirt2
  Effect on Sirt2 activity (in words): smaller effects

## CCOC(=O)C1=CN(C(=O)c2cc(OC)c(OC)c(OC)c2)C=C(C(=O)OCC)C1c1ccoc1 [Compound 41, Diethyl 4-(Furan-3-yl)-1-(3,4,5-trimethoxybenzoyl)-1,4-dihydropyridine-3,5-dicarboxylate]
Sirt2
  Effect on Sirt2 activity (in words): smaller effects
